Paper PMC3799806 (Bioorganic & medicinal chemistry, 2012)

Test system: HG23 cells
Assay: cell cytotoxicity assay kit
Format: cell-based
Conditions: TD50

`O=C(CN(Cc1ccccc1)S(=O)(=O)NCc1cccc(Oc2ccccc2)c1)NCCN1CCOCC1` [Compound 11b, 2-(Benzyl(N-(3-phenoxybenzyl)sulfamoyl)amino)-N-(2-morpholinoethyl)acetamide] was tested, and the “higher toxicity versus compound 11a” value was ~ 8 fold.
